Source: PubChem BioAssay (NCI)
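Growth conditions: 96-well plates. Treatment: test compound, 48 hours, 5 concentrations. Analysis: linear interpolation between bracketing concentrations; unreached endpoints set to highest concentration. TGI marks complete inhibition of growth.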

Assays:
Experiment in all cases: inhibition of tumour cell growth, NCI panel, 48 h
U251 CNS = system: U251 CNS
UACC-257 melanoma = system: UACC-257 melanoma
CCRF-CEM leukemia = system: CCRF-CEM leukemia
T-47D breast = system: T-47D breast
SF-268 CNS = system: SF-268 CNS
TK-10 renal = system: TK-10 renal
HT29 colon = system: HT29 colon
RXF 393 renal = system: RXF 393 renal
CAKI-1 renal = system: CAKI-1 renal
SR leukemia = system: SR leukemia
A549 NSCLC = system: A549 NSCLC
HL-60(TB) leukemia = system: HL-60(TB) leukemia
MDA-N = system: MDA-N
PC-3 prostate = system: PC-3 prostate
SNB-19 CNS = system: SNB-19 CNS
SK-MEL-28 melanoma = system: SK-MEL-28 melanoma
HCT-116 colon = system: HCT-116 colon
NCI-H460 lung = system: NCI-H460 lung
OVCAR-5 ovarian = system: OVCAR-5 ovarian
LOX IMVI melanoma = system: LOX IMVI melanoma
A498 renal = system: A498 renal
M14 melanoma = system: M14 melanoma
SF-295 CNS = system: SF-295 CNS
SW-620 colon = system: SW-620 colon
SK-MEL-2 melanoma = system: SK-MEL-2 melanoma
RPMI-8226 leukemia = system: RPMI-8226 leukemia
SF-539 CNS = system: SF-539 CNS
OVCAR-3 ovarian = system: OVCAR-3 ovarian
OVCAR-4 ovarian = system: OVCAR-4 ovarian
UO-31 renal = system: UO-31 renal
DU-145 prostate = system: DU-145 prostate
K-562 leukemia = system: K-562 leukemia
786-0 renal = system: 786-0 renal
COLO 205 colon = system: COLO 205 colon
OVCAR-8 ovarian = system: OVCAR-8 ovarian
SNB-75 CNS = system: SNB-75 CNS
MOLT-4 leukemia = system: MOLT-4 leukemia
MDA-MB-435 = system: MDA-MB-435
NCI-H522 lung = system: NCI-H522 lung
UACC-62 melanoma = system: UACC-62 melanoma
SK-OV-3 ovarian = system: SK-OV-3 ovarian
EKVX NSCLC = system: EKVX NSCLC
SN12C renal = system: SN12C renal
MDA-MB-231 breast = system: MDA-MB-231 breast
HOP-92 NSCLC = system: HOP-92 NSCLC
MCF7 breast = system: MCF7 breast
NCI-H23 lung = system: NCI-H23 lung
NCI-H226 lung = system: NCI-H226 lung
HOP-62 NSCLC = system: HOP-62 NSCLC
HCC-2998 colon = system: HCC-2998 colon
IGROV1 ovarian = system: IGROV1 ovarian
SK-MEL-5 melanoma = system: SK-MEL-5 melanoma
HS 578T breast = system: HS 578T breast
ACHN renal = system: ACHN renal
BT-549 breast = system: BT-549 breast
NCI/ADR-RES ovarian = system: NCI/ADR-RES ovarian
KM12 colon = system: KM12 colon
HCT-15 colon = system: HCT-15 colon

Which results are given for `COc1ccc2c(c1)C(=O)c1ccccc1C2`?
TGI (U251 CNS): > 100 µM; TGI (UACC-257 melanoma): > 100 µM; TGI (CCRF-CEM leukemia): > 100 µM; TGI (T-47D breast): 67.8 µM; TGI (SF-268 CNS): > 100 µM; TGI (TK-10 renal): > 100 µM; TGI (HT29 colon): > 100 µM; TGI (RXF 393 renal): 28.4 µM; TGI (CAKI-1 renal): > 100 µM; TGI (SR leukemia): > 100 µM; TGI (A549 NSCLC): > 100 µM; TGI (HL-60(TB) leukemia): > 100 µM; TGI (MDA-N): > 100 µM; TGI (PC-3 prostate): > 100 µM; TGI (SNB-19 CNS): > 100 µM; TGI (SK-MEL-28 melanoma): > 100 µM; TGI (HCT-116 colon): > 100 µM; TGI (NCI-H460 lung): > 100 µM; TGI (OVCAR-5 ovarian): > 100 µM; TGI (LOX IMVI melanoma): > 100 µM; TGI (A498 renal): > 100 µM; TGI (M14 melanoma): > 100 µM; TGI (SF-295 CNS): > 100 µM; TGI (SW-620 colon): > 100 µM; TGI (SK-MEL-2 melanoma): > 100 µM; TGI (RPMI-8226 leukemia): > 100 µM; TGI (SF-539 CNS): > 100 µM; TGI (OVCAR-3 ovarian): > 100 µM; TGI (OVCAR-4 ovarian): > 100 µM; TGI (UO-31 renal): > 100 µM; TGI (DU-145 prostate): 35 µM; TGI (K-562 leukemia): > 100 µM; TGI (786-0 renal): > 100 µM; TGI (COLO 205 colon): > 100 µM; TGI (OVCAR-8 ovarian): > 100 µM; TGI (SNB-75 CNS): 63.5 µM; TGI (MOLT-4 leukemia): > 100 µM; TGI (MDA-MB-435): > 100 µM; TGI (NCI-H522 lung): > 100 µM; TGI (UACC-62 melanoma): > 100 µM; TGI (SK-OV-3 ovarian): > 100 µM; TGI (EKVX NSCLC): > 100 µM; TGI (SN12C renal): > 100 µM; TGI (MDA-MB-231 breast): 76.3 µM; TGI (HOP-92 NSCLC): > 100 µM; TGI (MCF7 breast): > 100 µM; TGI (NCI-H23 lung): > 100 µM; TGI (NCI-H226 lung): > 100 µM; TGI (HOP-62 NSCLC): > 100 µM; TGI (HCC-2998 colon): > 100 µM; TGI (IGROV1 ovarian): > 100 µM; TGI (SK-MEL-5 melanoma): > 100 µM; TGI (HS 578T breast): > 100 µM; TGI (ACHN renal): > 100 µM; TGI (BT-549 breast): > 100 µM; TGI (NCI/ADR-RES ovarian): > 100 µM; TGI (KM12 colon): > 100 µM; TGI (HCT-15 colon): > 100 µM

Which results are given for `COc1cccc(-c2nc(-c3cnccn3)n(Cc3ccccc3)n2)c1`?
TGI (U251 CNS): > 100 µM; TGI (UACC-257 melanoma): > 100 µM; TGI (CCRF-CEM leukemia): > 100 µM; TGI (T-47D breast): > 100 µM; TGI (SF-268 CNS): > 100 µM; TGI (TK-10 renal): > 100 µM; TGI (HT29 colon): > 100 µM; TGI (RXF 393 renal): 64 µM; TGI (SR leukemia): > 100 µM; TGI (A549 NSCLC): > 100 µM; TGI (HL-60(TB) leukemia): > 100 µM; TGI (MDA-N): > 100 µM; TGI (PC-3 prostate): > 100 µM; TGI (SNB-19 CNS): > 100 µM; TGI (SK-MEL-28 melanoma): > 100 µM; TGI (HCT-116 colon): > 100 µM; TGI (NCI-H460 lung): > 100 µM; TGI (OVCAR-5 ovarian): > 100 µM; TGI (LOX IMVI melanoma): > 100 µM; TGI (M14 melanoma): > 100 µM; TGI (SF-295 CNS): > 100 µM; TGI (SW-620 colon): > 100 µM; TGI (RPMI-8226 leukemia): > 100 µM; TGI (SF-539 CNS): > 100 µM; TGI (OVCAR-3 ovarian): > 100 µM; TGI (OVCAR-4 ovarian): > 100 µM; TGI (UO-31 renal): > 100 µM; TGI (DU-145 prostate): > 100 µM; TGI (K-562 leukemia): > 100 µM; TGI (786-0 renal): > 100 µM; TGI (COLO 205 colon): > 100 µM; TGI (OVCAR-8 ovarian): > 100 µM; TGI (SNB-75 CNS): > 100 µM; TGI (MOLT-4 leukemia): > 100 µM; TGI (MDA-MB-435): > 100 µM; TGI (NCI-H522 lung): > 100 µM; TGI (UACC-62 melanoma): > 100 µM; TGI (SK-OV-3 ovarian): > 100 µM; TGI (EKVX NSCLC): > 100 µM; TGI (SN12C renal): > 100 µM; TGI (MDA-MB-231 breast): > 100 µM; TGI (HOP-92 NSCLC): 81.1 µM; TGI (MCF7 breast): > 100 µM; TGI (NCI-H23 lung): > 100 µM; TGI (HOP-62 NSCLC): > 100 µM; TGI (HCC-2998 colon): > 100 µM; TGI (IGROV1 ovarian): > 100 µM; TGI (SK-MEL-5 melanoma): > 100 µM; TGI (BT-549 breast): > 100 µM; TGI (KM12 colon): > 100 µM; TGI (HCT-15 colon): > 100 µM
